# Key:
# HIS-TGFβR1 T204D = target: T1, HIS-TGFβR1 T204D (Homo sapiens, UniProt P36897, T204D); assay: HTRF probe-displacement assay with HIS-TGFβR1 T204D; format: binding; conditions: 1 nM HIS-TGFβR1 T204D, labeled probe at Kd, 1 hour at room temperature
# T1 sequence (P36897 34-503 T204D): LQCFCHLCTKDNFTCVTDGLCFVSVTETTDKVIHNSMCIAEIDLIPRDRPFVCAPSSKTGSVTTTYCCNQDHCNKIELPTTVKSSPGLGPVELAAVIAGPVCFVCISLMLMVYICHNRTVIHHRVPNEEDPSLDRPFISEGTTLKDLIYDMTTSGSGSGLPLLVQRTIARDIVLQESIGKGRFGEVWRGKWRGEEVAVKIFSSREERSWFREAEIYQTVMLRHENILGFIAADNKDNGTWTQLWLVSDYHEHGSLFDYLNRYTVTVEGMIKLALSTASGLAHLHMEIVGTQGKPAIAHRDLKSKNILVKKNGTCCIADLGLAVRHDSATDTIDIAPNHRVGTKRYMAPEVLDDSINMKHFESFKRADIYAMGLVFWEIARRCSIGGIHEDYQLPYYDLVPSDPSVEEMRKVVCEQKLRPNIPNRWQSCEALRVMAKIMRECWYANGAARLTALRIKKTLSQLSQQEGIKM
# Summary of the method: (§1)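 Binding read as HTRF probe displacement with 1 nM HIS-tagged kinase, 0.2 nM anti-HIS antibody, labelled probe at Kd and 0.5% DMSO, 1 h at room temperature (Ex 340, Em 520/495 nm). Eleven-point dose response normalised to no-enzyme and vehicle controls; IC50 from non-linear regression.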
# HIS-TGFβR2 WT = HIS-TGFβR2 WT (Homo sapiens, UniProt P37173); assay: HTRF probe-displacement assay with HIS-TGFβR2 WT; format: binding; conditions: 1 nM HIS-TGFβR2 WT, labeled probe at Kd, 1 hour at room temperature
# Sequence of HIS-TGFβR2 WT (P37173 23-567): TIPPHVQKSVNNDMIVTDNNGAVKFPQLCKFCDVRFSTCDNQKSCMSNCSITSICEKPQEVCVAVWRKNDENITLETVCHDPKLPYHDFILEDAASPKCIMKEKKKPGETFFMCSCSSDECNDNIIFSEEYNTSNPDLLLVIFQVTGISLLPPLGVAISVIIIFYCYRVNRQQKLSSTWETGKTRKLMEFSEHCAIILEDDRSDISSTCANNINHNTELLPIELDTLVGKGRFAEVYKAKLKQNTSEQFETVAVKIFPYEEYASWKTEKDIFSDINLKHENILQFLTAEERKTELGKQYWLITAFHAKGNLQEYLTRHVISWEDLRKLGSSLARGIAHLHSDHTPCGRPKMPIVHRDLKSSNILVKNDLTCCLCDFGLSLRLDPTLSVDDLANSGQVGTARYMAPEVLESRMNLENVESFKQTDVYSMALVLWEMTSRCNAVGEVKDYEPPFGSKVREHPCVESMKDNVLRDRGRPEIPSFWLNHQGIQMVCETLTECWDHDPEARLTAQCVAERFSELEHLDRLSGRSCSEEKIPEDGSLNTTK
# Summary of the method: as §1
IC50 (HIS-TGFβR1 T204D) [µM],IC50 (HIS-TGFβR2 WT) [µM],Structure (SMILES)
0.001,2.06,"CCc1[nH]nc(-c2cccc(C)n2)c1-c1ccc2ncc(C#N)n2c1 [Example 124, 6-(5-ethyl-3-(6-methylpyridin-2-yl)-1H-pyrazol-4-yl)imidazo[1,2-a]pyridine-3-carbonitrile]"
0.001,0.013,"CCc1[nH]nc(-c2cccc(C)n2)c1-c1ccc2ncc(C(N)=O)n2c1 [Example 125, 6-(5-ethyl-3-(6-methylpyridin-2-yl)-1H-pyrazol-4-yl)imidazo[1,2-a]pyridine-3-carboxamide]"
0.001,3.15,"CCc1[nH]nc(-c2cccc(C)n2)c1-c1ccc2nccn2c1 [Example 126, 6-(5-ethyl-3-(6-methylpyridin-2-yl)-1H-pyrazol-4-yl)imidazo[1,2-a]pyridine]"
0.001,0.128,"CCc1c(-c2ccc3ncc(C(N)=O)n3c2)c(-c2cccc(C)n2)nn1C [Example 127, 6-(5-ethyl-1-methyl-3-(6-methylpyridin-2-yl)-1H-pyrazol-4-yl)imidazo[1,2-a]pyridine-3-carboxamide]"
0.027,13.1,"OCc1[nH]nc(-c2ccc(F)cc2)c1-c1ccc2nccn2c1 [Example 134, (3-(4-fluorophenyl)-4-(imidazo[1,2-a]pyridin-6-yl)-1H-pyrazol-5-yl)methanol]"
0.001,4.47,"Cc1cccc(-c2n[nH]c(CO)c2-c2ccc3nccn3c2)n1 [Example 141, (4-(imidazo[1,2-a]pyridin-6-yl)-3-(6-methylpyridin-2-yl)-1H-pyrazol-5-yl)methanol]"

# Second part, the compound before the results:
Structure (SMILES),IC50 (HIS-TGFβR1 T204D) [µM],IC50 (HIS-TGFβR2 WT) [µM]
"NC(=O)c1cnc2ccc(-c3c(-c4ccc(F)cc4)nn4c3COCC4)cn12 [Example 111, 6-(2-(4-fluorophenyl)-6,7-dihydro-4H-pyrazolo[5,1-c][1,4]oxazin-3-yl)imidazo[1,2-a]pyridine-3-carboxamide]",0.002,0.577
"CC(=O)Nc1cc(-c2c(-c3ccc(F)cc3)nn3c2COCC3)ccn1 [Example 112, N-(4-(2-(4-fluorophenyl)-6,7-dihydro-4H-pyrazolo[5,1-c][1,4]oxazin-3-yl)pyridin-2-yl)acetamide]",0.011,0.105
"Cc1cccc(-c2n[nH]c(C(C)C)c2-c2ccc3ncc(C#N)n3c2)n1 [Example 114, 6-(5-isopropyl-3-(6-methylpyridin-2-yl)-1H-pyrazol-4-yl) imidazo [1,2-a]pyridine-3-carbonitrile]",0.001,0.761
"Cc1cccc(-c2n[nH]c(C(C)C)c2-c2ccc3ncc(C(N)=O)n3c2)n1 [Example 115, 6-(5-isopropyl-3-(6-methylpyridin-2-yl)-1H-pyrazol-4-yl)imidazo[1,2-a]pyridine-3-carboxamide]",0.001,0.009
"Cc1cccc(-c2nn(C)c(C(C)C)c2-c2ccc3ncc(C#N)n3c2)n1 [Example 116, 6-(5-isopropyl-1-methyl-3-(6-methylpyridin-2-yl)-1H-pyrazol-4-yl)imidazo[1,2-a]pyridine-3-carbonitrile]",0.001,5.77
"Cc1cccc(-c2n[nH]c(C(C)C)c2-c2ccc3nccn3c2)n1 [Example 118, 6-(5-isopropyl-3-(6-methylpyridin-2-yl)-1H-pyrazol-4-yl)imidazo[1,2-a]pyridine]",0.001,2.69
"Cc1cccc(-c2nn(C)c(C(C)C)c2-c2ccc3nccn3c2)n1 [Example 119, 6-(5-isopropyl-1-methyl-3-(6-methylpyridin-2-yl)-1H-pyrazol-4-yl)imidazo[1,2-a]pyridine]",0.003,4.95
"Cc1cccc(-c2n[nH]c(C3CC3)c2-c2ccc3ncc(C#N)n3c2)n1 [Example 121, 6-(5-cyclopropyl-3-(6-methylpyridin-2-yl)-1H-pyrazol-4-yl)imidazo[1,2-a]pyridine-3-carbonitrile]",0.001,0.216
"Cc1cccc(-c2n[nH]c(C3CC3)c2-c2ccc3ncc(C(N)=O)n3c2)n1 [Example 122, 6-(5-cyclopropyl-3-(6-methylpyridin-2-yl)-1H-pyrazol-4-yl)imidazo[1,2-a]pyridine-3-carboxamide]",0.001,0.004
"Cc1cccc(-c2n[nH]c(C3CC3)c2-c2ccc3nccn3c2)n1 [Example 123, 6-(5-cyclopropyl-3-(6-methylpyridin-2-yl)-1H-pyrazol-4-yl)imidazo[1,2-a]pyridine]",0.001,0.469
